Literature values in patent publication EP0975321B1, “THE USE OF THIOGLYCOLIC ACID AS DEPIGMENTING AGENT” (I.V. Pharma S.A.S., priority 1997, dated 1998).

Settings: Acidic strength; Table 1

Compound	pKa value
O=C(O)CS [Tioglycolic acid, 2-mercaptoacetic acid]	3.68
O=C(O)C(Cl)(Cl)Cl [Trichloroacetic acid]	0.70
